Results as given in ChEMBL document CHEMBL1149000, “Effects of p-Methoxycinnamaldehyde from Star Anise and Related Cinnamic Acid Derivatives on Velvetleaf Germination” (J Nat Prod, 1986).

How the values were obtained:
Abutilon theophrasti [1] = test: Herbicidal activity against velvetleaf assessed as seed germination at 2.5 mM after 4 days relative to control; type: functional
Abutilon theophrasti [2] = test: Herbicidal activity against velvetleaf assessed as seed germination at 1 mM after 4 days relative to control; type: functional
Abutilon theophrasti [3] = test: Herbicidal activity against velvetleaf assessed as seed germination at 5 mM after 4 days relative to control; type: functional
[4] = Inhibition of cAMP phosphodiesterase at 0.05 mM
[5] = Toxicity in rat; type: organism-based; settings: in vivo

Compound	Activity (Abutilon theophrasti [1])	Activity (Abutilon theophrasti [2])	Activity (Abutilon theophrasti [3])	inhibition [4]	LD50 [5]
COc1ccccc1/C=C/C=O	3%	77%	0%	–	–
COc1ccc(/C=C/C(=O)O)cc1 [4-METHOXYCINNAMIC ACID]	83%	107%	83%	–	–
C/C=C/c1ccc(OC)cc1 [ANETHOLE]	100%	98%	95%	–	–
O=C/C=C/c1ccccc1 [CINNAMALDEHYDE]	0%	57%	0%	–	–
O=C(O)/C=C/c1ccccc1 [CINNAMIC ACID]	77%	100%	5%	–	–
OC/C=C/c1ccccc1 [CINNAMIC ALCOHOL]	0%	73%	0%	–	–
COc1ccc(/C=C/C=O)cc1 [PARA-METHOXY CINNAMALDEHYDE]	8%	83%	1%	50%	> 5000 mg/kg
